Measurements published in patent US7160890B2, “Compounds specific to adenosine A3 receptor and uses thereof” (OSI Pharmaceuticals, Inc., priority 1999, dated 2007).

Legend:
[1] = molecular target: T1, human A2a receptor subtype (Homo sapiens, UniProt P29274); assay: Adenosine 2a receptor subtype competition radioligand binding, [3H]CGS-21680, HEK293 membranes; settings: Table 13, concentration not given
T1 construct: expressed in transfected cells; host or cells: HEK-293 (Cadus clone #5)

[2] = molecular target: T2, human A3 receptor subtype (Homo sapiens, UniProt P0DMS8); assay: Adenosine 3 receptor competition radioligand binding, [125I]AB-MECA, HEK293 membranes; settings: compared with compound 1308
T2 construct: expressed in transfected cells; host or cells: HEK293
T2 sequence (P0DMS8 1-318): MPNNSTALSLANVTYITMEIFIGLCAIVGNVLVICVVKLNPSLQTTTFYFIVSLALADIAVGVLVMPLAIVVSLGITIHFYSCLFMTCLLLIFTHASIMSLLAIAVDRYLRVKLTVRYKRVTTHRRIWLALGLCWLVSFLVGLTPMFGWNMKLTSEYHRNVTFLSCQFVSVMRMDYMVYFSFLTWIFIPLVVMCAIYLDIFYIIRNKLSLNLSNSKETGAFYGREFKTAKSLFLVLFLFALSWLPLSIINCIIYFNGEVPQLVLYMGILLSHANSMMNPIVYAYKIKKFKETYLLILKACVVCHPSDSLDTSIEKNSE

[3] = molecular target: T3, human A1 receptor subtype (Homo sapiens, UniProt P30542); settings: Table 13, concentration not given
T3 sequence (P30542 1-326): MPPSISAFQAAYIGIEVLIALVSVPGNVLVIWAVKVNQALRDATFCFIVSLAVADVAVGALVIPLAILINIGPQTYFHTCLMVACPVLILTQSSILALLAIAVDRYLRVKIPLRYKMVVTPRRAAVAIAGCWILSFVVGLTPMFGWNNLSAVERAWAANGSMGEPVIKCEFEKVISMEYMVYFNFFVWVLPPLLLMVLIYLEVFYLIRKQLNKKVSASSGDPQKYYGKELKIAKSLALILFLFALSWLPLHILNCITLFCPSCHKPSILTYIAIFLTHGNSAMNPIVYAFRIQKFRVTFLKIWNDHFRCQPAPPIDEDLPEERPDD

[4] = molecular target: human A1 adenosine receptor (Homo sapiens, UniProt P30542); settings: cited from earlier work

T1 sequence (P29274 whole entry): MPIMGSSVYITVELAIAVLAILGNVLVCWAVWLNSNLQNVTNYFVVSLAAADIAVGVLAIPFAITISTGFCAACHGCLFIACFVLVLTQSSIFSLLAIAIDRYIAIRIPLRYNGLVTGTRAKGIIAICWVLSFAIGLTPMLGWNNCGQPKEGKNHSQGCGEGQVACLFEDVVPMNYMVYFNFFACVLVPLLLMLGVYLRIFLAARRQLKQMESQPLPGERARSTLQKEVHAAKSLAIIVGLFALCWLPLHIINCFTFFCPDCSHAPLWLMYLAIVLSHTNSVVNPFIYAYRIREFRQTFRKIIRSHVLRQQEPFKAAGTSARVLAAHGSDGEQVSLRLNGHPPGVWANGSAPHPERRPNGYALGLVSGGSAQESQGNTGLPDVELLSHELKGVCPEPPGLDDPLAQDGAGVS

Compound: CNC(=O)NCCCNc1nc(-c2ccccc2)nc2[nH]c(C)c(C)c12 [Compound 1310]
- Binding A2a, value given in % [1]: 76%

Compound: c1ccc(-c2nc(NCCc3cnc[nH]3)c3cc[nH]c3n2)cc1 [Compound 1720, [2-(3H-Imidazol-4-yl)-ethyl]-(2-phenyl-7H-pyrrolo[2,3-d]pyrimidin-4-yl)-amine]
- A3 receptor binding affinity relative to reference compound 1308 [2]: greater than 10 times
- melting point: 234 to 235 °C

Compound: Cc1[nH]c2nc(-c3ccccc3)nc(NCCNC(=O)C3(N)CC3)c2c1C [Compound 1313]
- Binding A1, value printed in % [3]: 30%

Compound: CC(Cc1ccccc1)Nc1ncnc2c1ncn2[C@@H]1O[C@H](CO)[C@@H](O)[C@H]1O (single isomer, unassigned; (-)) [PIA, (−)-N6-(2-phenylisopropyl)-adenosine]
- reported affinity [4]: approximately 50 nM
